From PubChem BioAssay AID1259407 (Chemical Carcinogenesis Research Information System (CCRIS), 2018)
Active and inactive are the calls of the source. The rule behind the calls is not given here.

Tested on: CCRIS mutagenicity, Ames/micronucleus/aberration tests
Experiment: CCRIS mutagenicity studies
[1] = Test System: AMES SALMONELLA TYPHIMURIUM, Strain/Indicator: TA97A, Metabolic Activation: NONE, Method: STANDARD PLATE
[2] = Test System: AMES SALMONELLA TYPHIMURIUM, Strain/Indicator: TA100, Metabolic Activation: NONE, Method: STANDARD PLATE
[3] = Test System: AMES SALMONELLA TYPHIMURIUM, Strain/Indicator: TA102, Metabolic Activation: NONE, Method: STANDARD PLATE
[4] = Test System: AMES SALMONELLA TYPHIMURIUM, Strain/Indicator: TA98, Metabolic Activation: NONE, Method: PREINCUBATION
[5] = Test System: AMES SALMONELLA TYPHIMURIUM, Strain/Indicator: TA98, Metabolic Activation: NONE, Method: STANDARD PLATE
[6] = Test System: AMES SALMONELLA TYPHIMURIUM, Strain/Indicator: TA100, Metabolic Activation: NONE, Method: PREINCUBATION
[7] = Test System: AMES SALMONELLA TYPHIMURIUM, Strain/Indicator: TA102, Metabolic Activation: RAT, LIVER, S-9, AROCLOR 1254, Method: STANDARD PLATE

CC(C)CCC[C@@H](C)[C@H]1CC[C@H]2[C@@H]3C[C@@H]4N(N5C(=O)c6ccccc6C5=O)[C@@]45C[C@@H](Cl)CC[C@]5(C)[C@H]3CC[C@]12C (stereo not given in full)
mutagenic call [1]: inactive; negative
mutagenic call [2]: inactive; negative
mutagenic call [3]: inactive; negative
mutagenic call (Test System: AMES SALMONELLA TYPHIMURIUM, Strain/Indicator: TA104, Metabolic Activation: NONE, Method: STANDARD PLATE): inactive; negative

[Cl][Pd-2]([Cl])([Cl])[Cl]
mutagenic call [1]: inactive; negative
mutagenic call (Test System: AMES SALMONELLA TYPHIMURIUM, Strain/Indicator: TA97A, Metabolic Activation: RAT, LIVER, S-9, PHENOBARBITAL AND 5,6-BENZOFLAVONE, Method: STANDARD PLATE): inactive; negative
mutagenic call (Test System: AMES SALMONELLA TYPHIMURIUM, Strain/Indicator: TA97A, Metabolic Activation: RAT, LIVER, S-9, PHENOBARBITAL AND BETA-NAPHTHOFLAVONE, Method: STANDARD PLATE): inactive; negative
mutagenic call [4]: inactive; negative
mutagenic call [5]: inactive; negative
mutagenic call (Test System: AMES SALMONELLA TYPHIMURIUM, Strain/Indicator: TA98, Metabolic Activation: RAT, LIVER, S-9, AROCLOR 1254, Method: PREINCUBATION): inactive; negative
mutagenic call (Test System: AMES SALMONELLA TYPHIMURIUM, Strain/Indicator: TA98, Metabolic Activation: RAT, LIVER, S-9, PHENOBARBITAL AND 5,6-BENZOFLAVONE, Method: STANDARD PLATE): inactive; negative
mutagenic call (Test System: AMES SALMONELLA TYPHIMURIUM, Strain/Indicator: TA98, Metabolic Activation: RAT, LIVER, S-9, PHENOBARBITAL AND BETA-NAPHTHOFLAVONE, Method: STANDARD PLATE): inactive; negative
mutagenic call [6]: inactive; negative
mutagenic call [2]: inactive; negative
mutagenic call (Test System: AMES SALMONELLA TYPHIMURIUM, Strain/Indicator: TA100, Metabolic Activation: RAT, LIVER, S-9, AROCLOR 1254, Method: PREINCUBATION): inactive; negative
mutagenic call (Test System: AMES SALMONELLA TYPHIMURIUM, Strain/Indicator: TA100, Metabolic Activation: RAT, LIVER, S-9, PHENOBARBITAL AND 5,6-BENZOFLAVONE, Method: STANDARD PLATE): inactive; negative
mutagenic call (Test System: AMES SALMONELLA TYPHIMURIUM, Strain/Indicator: TA100, Metabolic Activation: RAT, LIVER, S-9, PHENOBARBITAL AND BETA-NAPHTHOFLAVONE, Method: STANDARD PLATE): inactive; negative
mutagenic call [3]: inactive; negative
mutagenic call (Test System: AMES SALMONELLA TYPHIMURIUM, Strain/Indicator: TA102, Metabolic Activation: RAT, LIVER, S-9, PHENOBARBITAL AND 5,6-BENZOFLAVONE, Method: STANDARD PLATE): inactive; negative
mutagenic call (Test System: AMES SALMONELLA TYPHIMURIUM, Strain/Indicator: TA102, Metabolic Activation: RAT, LIVER, S-9, PHENOBARBITAL AND BETA-NAPHTHOFLAVONE, Method: STANDARD PLATE): inactive; negative

C\C=C(/C=C(C)/C=C(C)/C=C/C=C(\C)C(=O)[C@]12O[C@H]1[C@@](O)(CCO)NC2=O)C(=O)OC
mutagenic call [1]: inactive; negative
mutagenic call (Test System: AMES SALMONELLA TYPHIMURIUM, Strain/Indicator: TA97A, Metabolic Activation: RAT, LIVER, S-9, AROCLOR 1254, Method: STANDARD PLATE): active; positive
mutagenic call [5]: inactive; negative
mutagenic call (Test System: AMES SALMONELLA TYPHIMURIUM, Strain/Indicator: TA98, Metabolic Activation: RAT, LIVER, S-9, AROCLOR 1254, Method: STANDARD PLATE): active; positive
mutagenic call [6]: active; positive
mutagenic call [2]: inactive; negative
mutagenic call (Test System: AMES SALMONELLA TYPHIMURIUM, Strain/Indicator: TA100, Metabolic Activation: RAT, LIVER, MICROSOMES, PHENOBARBITAL, Method: PREINCUBATION): active; positive
mutagenic call (Test System: AMES SALMONELLA TYPHIMURIUM, Strain/Indicator: TA100, Metabolic Activation: RAT, LIVER, S-9, AROCLOR 1254, Method: STANDARD PLATE): active; positive
mutagenic call [3]: inactive; negative
mutagenic call [7]: inactive; negative

CCCCCC[C@H](C/C=C\CCCCCCCC(=O)OC)OC(C)=O
mutagenic call (Test System: AMES SALMONELLA TYPHIMURIUM, Strain/Indicator: TA97, Metabolic Activation: NONE, Method: PREINCUBATION): inactive; negative
mutagenic call (Test System: AMES SALMONELLA TYPHIMURIUM, Strain/Indicator: TA97, Metabolic Activation: RAT, LIVER, S-9, AROCLOR 1254, Method: PREINCUBATION): inactive; negative
mutagenic call (Test System: AMES SALMONELLA TYPHIMURIUM, Strain/Indicator: TA102, Metabolic Activation: NONE, Method: PREINCUBATION): inactive; negative
mutagenic call (Test System: AMES SALMONELLA TYPHIMURIUM, Strain/Indicator: TA102, Metabolic Activation: RAT, LIVER, S-9, AROCLOR 1254, Method: PREINCUBATION): inactive; negative

Nc1n[nH]c(N)n1
mutagenic call (Test System: AMES SALMONELLA TYPHIMURIUM, Strain/Indicator: TA97, Metabolic Activation: NONE, Method: STANDARD PLATE): inactive; negative
mutagenic call (Test System: AMES SALMONELLA TYPHIMURIUM, Strain/Indicator: TA97, Metabolic Activation: RAT, LIVER, S-9, AROCLOR, Method: STANDARD PLATE): inactive; negative
mutagenic call (Test System: AMES SALMONELLA TYPHIMURIUM, Strain/Indicator: TA98, Metabolic Activation: HAMSTER, LIVER, S-9, AROCLOR 1254 (10%), Method: PREINCUBATION): inactive; negative
mutagenic call [4]: inactive; negative
mutagenic call [5]: inactive; negative
mutagenic call (Test System: AMES SALMONELLA TYPHIMURIUM, Strain/Indicator: TA98, Metabolic Activation: RAT, LIVER, S-9, AROCLOR 1254 (10%), Method: PREINCUBATION): inactive; negative
mutagenic call (Test System: AMES SALMONELLA TYPHIMURIUM, Strain/Indicator: TA98, Metabolic Activation: RAT, LIVER, S-9, AROCLOR, Method: STANDARD PLATE): inactive; negative
mutagenic call (Test System: AMES SALMONELLA TYPHIMURIUM, Strain/Indicator: TA100, Metabolic Activation: HAMSTER, LIVER, S-9, AROCLOR 1254 (10%), Method: PREINCUBATION): inactive; negative
mutagenic call [6]: inactive; negative
mutagenic call [2]: inactive; negative
mutagenic call (Test System: AMES SALMONELLA TYPHIMURIUM, Strain/Indicator: TA100, Metabolic Activation: RAT, LIVER, S-9, AROCLOR 1254 (10%), Method: PREINCUBATION): inactive; negative
mutagenic call (Test System: AMES SALMONELLA TYPHIMURIUM, Strain/Indicator: TA100, Metabolic Activation: RAT, LIVER, S-9, AROCLOR, Method: STANDARD PLATE): inactive; negative
mutagenic call [3]: active; positive
mutagenic call [7]: active; positive
mutagenic call (Test System: AMES SALMONELLA TYPHIMURIUM, Strain/Indicator: TA1535, Metabolic Activation: HAMSTER, LIVER, S-9, AROCLOR 1254 (10%), Method: PREINCUBATION): inactive; negative
mutagenic call (Test System: AMES SALMONELLA TYPHIMURIUM, Strain/Indicator: TA1535, Metabolic Activation: NONE, Method: PREINCUBATION): inactive; negative
mutagenic call (Test System: AMES SALMONELLA TYPHIMURIUM, Strain/Indicator: TA1535, Metabolic Activation: NONE, Method: STANDARD PLATE): inactive; negative
mutagenic call (Test System: AMES SALMONELLA TYPHIMURIUM, Strain/Indicator: TA1535, Metabolic Activation: RAT, LIVER, S-9, AROCLOR 1254 (10%), Method: PREINCUBATION): inactive; negative
mutagenic call (Test System: AMES SALMONELLA TYPHIMURIUM, Strain/Indicator: TA1535, Metabolic Activation: RAT, LIVER, S-9, AROCLOR, Method: STANDARD PLATE): inactive; negative
mutagenic call (Test System: AMES SALMONELLA TYPHIMURIUM, Strain/Indicator: TA1537, Metabolic Activation: HAMSTER, LIVER, S-9, AROCLOR 1254 (10%), Method: PREINCUBATION): inactive; negative
mutagenic call (Test System: AMES SALMONELLA TYPHIMURIUM, Strain/Indicator: TA1537, Metabolic Activation: NONE, Method: PREINCUBATION): inactive; negative
mutagenic call (Test System: AMES SALMONELLA TYPHIMURIUM, Strain/Indicator: TA1537, Metabolic Activation: RAT, LIVER, S-9, AROCLOR 1254 (10%), Method: PREINCUBATION): inactive; negative
mutagenic call (Test System: UDS RODENT HEPATOCYTES, Strain/Indicator: THY INCORP (NON-S-PHASE), Metabolic Activation: NONE, Method: AUTORADIOGRAPHY): inactive; negative

Cc1ccc(N(SC(F)(Cl)Cl)S(=O)(=O)N(C)C)cc1
mutagenic call (End Point: In vivo chromosomal aberrations, Test System: Peripheral blood lymphocytes, Species: Sheep, Strain/Sex: Merino/female, Route: Intrarumen): active; positive (structural changes)
mutagenic call (End Point: In vivo micronucleus, Test System: Peripheral blood lymphocytes, Species: Sheep, Strain/Sex: Merino/female, Route: Intrarumen): active; positive

COc1cccc(C=O)c1
mutagenic call (Test System: MOUSE LYMPHOMA, Strain/Indicator: L5178Y (TK+/TK-), Metabolic Activation: NONE, Method: SUSPENSION/PLATE): inactive; negative
